Assay results from patent US20050118664A1, “Fluorogenic protease substrates” (priority 2002, published 2005).
Where a SMILES comes first, the peptide text is derived from it. The star is where a group is joined. X1 = CN(C)c1ccc2c(-c3cc(NC(=O)C*)ccc3C(=O)[O-])c3ccc(=[N+](C)C)cc-3oc2c1

Legend:
PfSUB-1 [1] = biological target: T1, PfSUB-1 (Plasmodium falciparum, UniProt O61142); assay: Multi-well fluorescence assay of PfSUB-1 activity with or without inhibitor; assay type: biochemical
T1 construct: made in house; host or cells: baculovirus/insect cell system
T1 sequence (O61142 220-690): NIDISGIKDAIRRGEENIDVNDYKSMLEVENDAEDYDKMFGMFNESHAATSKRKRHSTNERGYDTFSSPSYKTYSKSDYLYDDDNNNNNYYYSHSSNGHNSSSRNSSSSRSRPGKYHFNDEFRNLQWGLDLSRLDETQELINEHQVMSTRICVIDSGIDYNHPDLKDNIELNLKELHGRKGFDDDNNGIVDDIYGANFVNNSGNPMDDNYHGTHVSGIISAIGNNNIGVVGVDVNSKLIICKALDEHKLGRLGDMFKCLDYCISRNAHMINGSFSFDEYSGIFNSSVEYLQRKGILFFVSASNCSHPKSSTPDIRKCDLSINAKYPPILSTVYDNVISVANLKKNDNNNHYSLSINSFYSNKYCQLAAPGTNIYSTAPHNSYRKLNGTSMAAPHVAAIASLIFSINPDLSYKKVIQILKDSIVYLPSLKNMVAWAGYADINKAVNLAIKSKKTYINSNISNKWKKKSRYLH
Procedure: Purified recombinant PfSUB-1 at a range of concentrations in digestion buffer was dispensed into 50 μl aliquots in wells of white 96-well microtitre plates (FluoroNunc, NUNC). […] Plates were sealed and incubated at 37° C. for 18 h before being read on a Perkin Elmer LS-50B Luminescence spectrometer fitted with a LS50B WPR multi-plate reader accessory. Measurements were performed at an excitation wavelength of 552 nm, slit width 4 nm, and an emission wavelength of 580 nm, slit width 2.5 nm. Data collection was managed using Perkin Elmer FL WinLab software.

PfSUB-1 [2] = biological target: T1, PfSUB-1; details: from reference [4]; cited from earlier work
PfSUB-1 [3] = biological target: T1, PfSUB-1; assay: Protease digestion of fluorogenic substrate with recombinant PfSUB-1, fluorescence readout; assay type: biochemical
Procedure: (§1) All dye concentrations were determined from the absorption at 528 nm, with ε 52,000 M^−1cm^−1 [5]. Solutions of pepF1-R and its isomer derived from 5-IATR were prepared at ˜4 μM by dilution from stock DMSO solutions into digestion buffer (20 mM Tris, 50 mM NaCl, 12 mM CaCl2, 0.05% NP-40 (w/v), pH 7.6). It was necessary to include NP-40 detergent (Boehringer Mannheim) in all buffers containing the labelled peptides to avoid non-specific adsorption to glass and plasticware. Portions (4 ml) of each solution were treated with an aliquot of pronase (16 μl of 1 mg ml^−1 in the same buffer) and incubated at room temperature for 30 min. Absorbance spectra of these solutions and of the corresponding labelled peptides prior to pronase treatment were recorded (Beckman DU640 spectrophotometer).
(§2) For protease digestion experiments, pepF1-R was diluted directly from DMSO stocks into digestion buffer (20 mM Tris-HCl pH 7.6, 50 mM NaCl, 12 mM CaCl2, ±0.05% w/v Nonidet P40). The DMSO concentration in digestion experiments was maintained below 1% (v/v).
A sample of pepF1-R digested with PfSUB-1 was subjected to RP-HPLC-fractionation (Vydac 4.6 mm×25 cm C18 reversed-phase column, eluted at 1 ml min^−1 with a 4.5-58.5% (v/v) gradient of acetonitrile in 0.1% TFA). In addition to a small peak at 38.5 min corresponding to residual pepF1-R, two large new fluorescent peaks of equal height were evident, with retention times of 29.6 and 34.0 min.
(§3) For these measurements, the compound was diluted 200-fold from a 230 μM stock solution in DMSO into 20 mM Tris-HCl pH 7.6. Identical spectra were obtained upon dilution into 20 mM acetate buffer, pH 5.0, or 20 mM ethanolamine pH 10.0. All buffer solutions contained 0.05% NP-40 detergent (w/v).

pronase = assay: Protease digestion of fluorogenic substrate with pronase, fluorescence readout; assay type: biochemical
Procedure: as §1, §2, §3

PfSUB-1 [4] = biological target: T1, PfSUB-1; details: recombinant PfSUB-1 and authentic parasite-derived enzyme; reference [4]; cited from earlier work

Molecule: O=C(O)c1cc[c]([Hg+])cc1.[OH-] [pHMB, p-hydroxymercuribenzoate]
- fluorescence increase of pepF1-R with inhibitor-pre-treated PfSUB-1 (PfSUB-1 [1]; PfSUB-1 pre-treated with 1 mM inhibitor): no fluorescence increase
- effect of inhibitor on PfSUB-1-dependent fluorescence increase of pepF1-R (PfSUB-1 [1]; multi-well assay, 0.5 μl 100 mM pHMB per 50 μl well, 30 min pre-mix, 37° C. 18 h): virtually completely ablated
- inhibition of PfSUB-1 (in words) (PfSUB-1 [2]): potent inhibitor

Molecule: CC[C@H](C)[C@H](NC(=O)[C@H](CC(=O)O)NC(=O)[C@@H](NC(=O)[C@H](CC(N)=O)NC(=O)[C@H](CC(=O)O)NC(=O)[C@H](C)NC(=O)[C@H](CO)NC(=O)[C@@H](NC(=O)[C@H](CSCC(=O)Nc1ccc(C(=O)[O-])c(-c2c3ccc(=[N+](C)C)cc-3oc3cc(N(C)C)ccc23)c1)NC(C)=O)C(C)C)[C@@H](C)CC)C(=O)N[C@@H](CSCC(=O)Nc1ccc(C(=O)[O-])c(-c2c3ccc(=[N+](C)C)cc-3oc3cc(N(C)C)ccc23)c1)C(=O)O [pepF1-R] (Ac-C(X1)VSADNIDIC(X1)-OH)
- solubility: ≤ 50 µM
- increase in fluorescence on cleavage (PfSUB-1 [3]; addition of recombinant PfSUB-1, 20 mM Tris-HCl pH 7.6, 0.05% NP-40, ex 552 nm, em 580 nm): greater than 25 fold
- cleavage site of substrate (RP-HPLC / mass spectrometry of products) (PfSUB-1 [3]; digested with PfSUB-1): cleavage at the Asp-Asn bond
- fluorescence change on incubation with protease (in words) (PfSUB-1 [3]; purified recombinant PfSUB-1, digestion buffer): dramatic, time-dependent increase in fluorescence
- increase in fluorescence on cleavage (pronase; addition of pronase, 20 mM Tris-HCl pH 7.6, 0.05% NP-40, ex 552 nm, em 580 nm): greater than 25 fold
- fluorescence change on incubation with protease (in words) (pronase; pronase, digestion buffer): dramatic, time-dependent increase in fluorescence

Molecule: Ac-LVSADNIDIS—OH: N-acetylated synthetic decapeptide based on the PfSUB-1 autocatalytic cleavage site (Ac-LVSADNIDIS-OH)
- cleavage by PfSUB-1 (in words) (PfSUB-1 [4]): cleaved at the Asp-Asn bond
